Source: US20050197350A1, “Novel quinoline, tetrahydroquinazoline, and pyrimidine derivatives and methods of treatment related to the use thereof” (TAISHO PHARMACEUTICAL CO., LTD., priority 2003, published 2005)

system: MCH receptors; test: MCH receptor activity class (method not given); details: not given

SMILES	class
Cc1cc(N(C)C)nc(N[C@H]2CC[C@@H](C(=O)NCc3cccc(I)c3)CC2)n1 [Example 2571, cis-4-{[4-(dimethylamino)-6-methylpyrimidin-2-yl]amino}-N-(3-iodobenzyl)cyclohexanecarboxamide]	1
Cc1cc(N(C)C)nc(N[C@H]2CC[C@@H](C(=O)NCc3ccc(Cl)cc3Cl)CC2)n1 [Example 2572, cis-N-(2,4-dichlorobenzyl)-4-{[4-(dimethylamino)-6-methylpyrimidin-2-yl]amino}cyclohexanecarboxamide]	1
Cc1cc(N(C)C)nc(N[C@H]2CC[C@@H](C(=O)NCc3cc(Cl)ccc3Cl)CC2)n1 [Example 2573, cis-N-(2,5-dichlorobenzyl)-4-{[4-(dimethylamino)-6-methylpyrimidin-2-yl]amino}cyclohexanecarboxamide]	1
Cc1ccc(CNC(=O)[C@H]2CC[C@@H](Nc3nc(C)cc(N(C)C)n3)CC2)cc1 [Example 2574, cis-4-{[4-(dimethylamino)-6-methylpyrimidin-2-yl]amino}-N-(4-methylbenzyl)cyclohexanecarboxamide]	1
Cc1cc(N(C)C)nc(N[C@H]2CC[C@@H](C(=O)NCc3cc(Cl)cc(Cl)c3)CC2)n1 [Example 2575, cis-N-(3,5-dichlorobenzyl)-4-{[4-(dimethylamino)-6-methylpyrimidin-2-yl]amino}cyclohexanecarboxamide]	1
COc1cc(CNC(=O)[C@H]2CC[C@@H](Nc3nc(C)cc(N(C)C)n3)CC2)cc(OC)c1 [Example 2576, cis-N-(3,5-dimethoxybenzyl)-4-{[4-(dimethylamino)-6-methylpyrimidin-2-yl]amino}cyclohexanecarboxamide]	1
Cc1cc(N(C)C)nc(N[C@H]2CC[C@@H](C(=O)NCc3cccc(Cl)c3)CC2)n1 [Example 2577, cis-N-(3-chlorobenzyl)-4-{[4-(dimethylamino)-6-methylpyrimidin-2-yl]amino}cyclohexanecarboxamide]	1
Cc1cc(N(C)C)nc(N[C@H]2CC[C@@H](C(=O)NCc3cc(C(F)(F)F)cc(C(F)(F)F)c3)CC2)n1 [Example 2578, cis-N-[3,5-bis(trifluoromethyl)benzyl]-4-{[4-(dimethylamino)-6-methylpyrimidin-2-yl]amino}cyclohexanecarboxamide]	1
COc1cccc(CNC(=O)[C@H]2CC[C@@H](Nc3nc(C)cc(N(C)C)n3)CC2)c1 [Example 2579, cis-4-{[4-(dimethylamino)-6-methylpyrimidin-2-yl]amino}-N-(3-methoxybenzyl)cyclohexanecarboxamide]	1
Cc1cc(N(C)C)nc(N[C@H]2CC[C@@H](C(=O)NCc3ccc(Cl)cc3)CC2)n1 [Example 2580, cis-N-(4-chlorobenzyl)-4-{[4-(dimethylamino)-6-methylpyrimidin-2-yl]amino}cyclohexanecarboxamide]	1
Cc1cc(N(C)C)nc(N[C@H]2CC[C@@H](C(=O)NCc3ccc(Cl)c(Cl)c3)CC2)n1 [Example 2581, cis-N-(3,4-dichlorobenzyl)-4-{[4-(dimethylamino)-6-methylpyrimidin-2-yl]amino}cyclohexanecarboxamide]	1
Cc1cc(N(C)C)nc(N[C@H]2CC[C@@H](C(=O)NCc3ccc(F)cc3F)CC2)n1 [Example 2582, cis-N-(2,4-difluorobenzyl)-4-{[4-(dimethylamino)-6-methylpyrimidin-2-yl]amino}cyclohexanecarboxamide]	1
Cc1cc(N(C)C)nc(N[C@H]2CC[C@@H](C(=O)NCc3cc(F)ccc3F)CC2)n1 [Example 2583, cis-N-(2,5-difluorobenzyl)-4-{[4-(dimethylamino)-6-methylpyrimidin-2-yl]amino}cyclohexanecarboxamide]	1
Cc1cc(N(C)C)nc(N[C@H]2CC[C@@H](C(=O)NCc3cccc(F)c3F)CC2)n1 [Example 2584, cis-N-(2,3-difluorobenzyl)-4-{[4-(dimethylamino)-6-methylpyrimidin-2-yl]amino}cyclohexanecarboxamide]	1
Cc1cc(N(C)C)nc(N[C@H]2CC[C@@H](C(=O)NCc3ccc(Br)cc3F)CC2)n1 [Example 2585, cis-N-(4-bromo-2-fluorobenzyl)-4-{[4-(dimethylamino)-6-methylpyrimidin-2-yl]amino}cyclohexanecarboxamide]	1
Cc1cccc(CNC(=O)[C@H]2CC[C@@H](Nc3nc(C)cc(N(C)C)n3)CC2)c1 [Example 2586, cis-4-{[4-(dimethylamino)-6-methylpyrimidin-2-yl]amino}-N-(3-methylbenzyl)cyclohexanecarboxamide]	1
Cc1cc(N(C)C)nc(N[C@H]2CC[C@@H](C(=O)NCc3ccccc3OC(F)(F)F)CC2)n1 [Example 2587, cis-4-{[4-(dimethylamino)-6-methylpyrimidin-2-yl]amino}-N-[2-(trifluoromethoxy)benzyl]cyclohexanecarboxamide]	1

same assay, conditions: MCH receptor; class by percent of control at 10^-7 M or IC50

SMILES	class
COc1cccc(C(=O)N[C@H]2CC[C@@H](Nc3cc(N(C)C)c4ccccc4n3)CC2)c1 [compound 20, N-(cis-4-{[4-(dimethylamino)quinolin-2-yl]amino}cyclohexyl)-3-methoxybenzamide]	2 (Class 2: The value of percent of control at 10^−7 M was from 40% to 60% or the value of IC′50 was from 50 nM to 200 nM.)
CN(C)c1cc(N[C@H]2CC[C@@H](NC(=O)c3cccc(Br)c3)CC2)nc2ccccc12 [compound 21]	1 (Class 1: The value of percent of control at 10^−7 M was less than 40% or the value of IC50 was less than 50 nM.)
CN(C)c1cc(N[C@H]2CC[C@@H](NC(=O)c3ccc(Br)cc3)CC2)nc2ccccc12 [compound 22]	2 (Class 2: The value of percent of control at 10^−7 M was from 40% to 60% or the value of IC′50 was from 50 nM to 200 nM.)
CN(C)c1cc(N[C@H]2CC[C@@H](NC(=O)c3ccc4nonc4c3)CC2)nc2ccccc12 [compound 23, N-(cis-4-{[4-(dimethylamino)quinolin-2-yl]amino}cyclohexyl)-2,1,3-benzoxadiazole-5-carboxamide]	1 (Class 1: The value of percent of control at 10^−7 M was less than 40% or the value of IC50 was less than 50 nM.)
CN(C)c1cc(N[C@H]2CC[C@@H](NC(=O)c3cccc(Cl)c3)CC2)nc2ccccc12 [compound 24]	1 (Class 1: The value of percent of control at 10^−7 M was less than 40% or the value of IC50 was less than 50 nM.)
CN(C)c1cc(N[C@H]2CC[C@@H](NC(=O)c3ccc(Cl)cc3)CC2)nc2ccccc12 [compound 25]	1 (Class 1: The value of percent of control at 10^−7 M was less than 40% or the value of IC50 was less than 50 nM.)
CN(C)c1cc(N[C@H]2CC[C@@H](NC(=O)/C=C/c3ccccc3)CC2)nc2ccccc12 [compound 26]	3 (Class 3 The value of percent of control at 10^−7 M was more than 60% or the value of IC50 was more than 200 nM.)
CN(C)c1cc(N[C@H]2CC[C@@H](NC(=O)c3ccc(Cl)c([N+](=O)[O-])c3)CC2)nc2ccccc12 [compound 27, 4-chloro-N-(cis-4-{[4-(dimethylamino)quinolin-2-yl]amino}cyclohexyl)-3-nitrobenzamide]	1 (Class 1: The value of percent of control at 10^−7 M was less than 40% or the value of IC50 was less than 50 nM.)
CN(C)c1cc(N[C@H]2CC[C@@H](NC(=O)Cc3ccc(Cl)cc3)CC2)nc2ccccc12 [compound 28]	3 (Class 3 The value of percent of control at 10^−7 M was more than 60% or the value of IC50 was more than 200 nM.)
CN(C)c1cc(N[C@H]2CC[C@@H](NC(=O)c3cccc(C#N)c3)CC2)nc2ccccc12 [compound 29]	2 (Class 2: The value of percent of control at 10^−7 M was from 40% to 60% or the value of IC′50 was from 50 nM to 200 nM.)
CN(C)c1cc(N[C@H]2CC[C@@H](NC(=O)c3cc(Cl)cc(Cl)c3)CC2)nc2ccccc12 [compound 30]	2 (Class 2: The value of percent of control at 10^−7 M was from 40% to 60% or the value of IC′50 was from 50 nM to 200 nM.)
CN(C)c1cc(N[C@H]2CC[C@@H](NC(=O)c3ccc(Cl)c(Cl)c3)CC2)nc2ccccc12 [compound 31]	1 (Class 1: The value of percent of control at 10^−7 M was less than 40% or the value of IC50 was less than 50 nM.)
CN(C)c1cc(N[C@H]2CC[C@@H](NC(=O)C(c3ccccc3)c3ccccc3)CC2)nc2ccccc12 [compound 32, N-(cis-4-{[4-(dimethylamino)quinolin-2-yl]amino}cyclohexyl)-2,2-diphenylacetamide]	2 (Class 2: The value of percent of control at 10^−7 M was from 40% to 60% or the value of IC′50 was from 50 nM to 200 nM.)
CN(C)c1cc(N[C@H]2CC[C@@H](NC(=O)c3ccc(F)c(F)c3)CC2)nc2ccccc12 [compound 33, N-(cis-4-{[4-(dimethylamino)quinolin-2-yl]amino}cyclohexyl)-3,4-difluorobenzamide]	1 (Class 1: The value of percent of control at 10^−7 M was less than 40% or the value of IC50 was less than 50 nM.)
CN(C)c1cc(N[C@H]2CC[C@@H](NC(=O)c3cc(F)cc(F)c3)CC2)nc2ccccc12 [compound 34, N-(cis-4-{[4-(dimethylamino)quinolin-2-yl]amino}cyclohexyl)-3,5-difluorobenzamide]	2 (Class 2: The value of percent of control at 10^−7 M was from 40% to 60% or the value of IC′50 was from 50 nM to 200 nM.)
COc1ccc(OC)c(CC(=O)N[C@H]2CC[C@@H](Nc3cc(N(C)C)c4ccccc4n3)CC2)c1 [compound 35]	3 (Class 3 The value of percent of control at 10^−7 M was more than 60% or the value of IC50 was more than 200 nM.)
CCSc1ncccc1C(=O)N[C@H]1CC[C@@H](Nc2cc(N(C)C)c3ccccc3n2)CC1 [compound 36]	3 (Class 3 The value of percent of control at 10^−7 M was more than 60% or the value of IC50 was more than 200 nM.)
CN(C)c1cc(N[C@H]2CC[C@@H](NC(=O)c3ccc(F)cc3)CC2)nc2ccccc12 [compound 37, N-(cis-4-{[4-(dimethylamino)quinolin-2-yl]amino}cyclohexyl)-4-fluorobenzamide]	1 (Class 1: The value of percent of control at 10^−7 M was less than 40% or the value of IC50 was less than 50 nM.)
